Entries after “also recorded” stand apart in the source; their conditions may differ. Where two headings read alike, the source gives them in different places. A value given as a limit tells only on which side of the number the result lay.

Test [1] deals with P2Y receptor (mesenteric artery). Kind of test: Relaxation of rabbit mesenteric artery.
Test [2] concerns the target T1, P2X receptor (saphenous artery) (Oryctolagus cuniculus, UniProt G1U3D6).
T1 construct: and rabbit saphenous artery; from tissue; host or cells: rabbit saphenous artery
T1 sequence (G1U3D6 1-399): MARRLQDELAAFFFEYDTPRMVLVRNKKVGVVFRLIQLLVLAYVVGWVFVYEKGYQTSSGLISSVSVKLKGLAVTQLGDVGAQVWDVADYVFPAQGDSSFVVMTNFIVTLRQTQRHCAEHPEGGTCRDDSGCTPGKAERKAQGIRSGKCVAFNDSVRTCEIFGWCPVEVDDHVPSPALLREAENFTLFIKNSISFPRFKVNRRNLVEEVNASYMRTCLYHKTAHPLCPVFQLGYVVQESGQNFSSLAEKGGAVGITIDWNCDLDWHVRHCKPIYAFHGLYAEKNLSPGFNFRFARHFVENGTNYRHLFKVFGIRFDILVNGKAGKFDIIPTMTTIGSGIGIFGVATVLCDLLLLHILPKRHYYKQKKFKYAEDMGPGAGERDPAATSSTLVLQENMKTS
Kind of test: Contraction of rabbit saphenous artery. The note with it: for activation at 10 µM: read-out: response at 10 μM relative to the contraction produced by 1 μM α,MeATP, saph. artery. From the text: (§1) Muscular relaxation/contraction: Relaxant responses mediated via P2Y receptors were examined in guinea pig taenia coli, rabbit aorta, and rabbit mesenteric artery, as described by Hoyle et al. (Br. J. Pharmacol., 107, 367-374 (1992a)), Burnstock et al., (Br. J. Pharmacol., 90, 383-391 (1987a)), and Rubino et al., (Eur. J. Pharmacol., 212, 237-240 (1992)). Contractile responses mediated via P2X receptors were examined in the guinea pig urinary bladder and vas deferens, and rabbit saphenous artery, also using standard methods (see Hoyle et al., supra., 1992; Hoyle et al., Br. J. Pharmacol., 99, 617-621 (1990); and Burnstock et al., Br. J. Pharmacol., 90, 111-120 (1987b)).
^c For the saphenous artery, the percentages in brackets are response
at 10 μM relative to the contraction produced by 1 μM α,MeATP
ATP in this assay is very weak (EC50 =
1.78 mM). The highest concentrations of the analogues tested were 3-30

In test [3] the target is T2, P2Y receptor (turkey erythrocyte membranes) (Meleagris gallopavo, UniProt P49652).
T2 construct: from tissue; host or cells: washed turkey erythrocytes, ghosts prepared by hypotonic lysis
T2 sequence (P49652 whole entry): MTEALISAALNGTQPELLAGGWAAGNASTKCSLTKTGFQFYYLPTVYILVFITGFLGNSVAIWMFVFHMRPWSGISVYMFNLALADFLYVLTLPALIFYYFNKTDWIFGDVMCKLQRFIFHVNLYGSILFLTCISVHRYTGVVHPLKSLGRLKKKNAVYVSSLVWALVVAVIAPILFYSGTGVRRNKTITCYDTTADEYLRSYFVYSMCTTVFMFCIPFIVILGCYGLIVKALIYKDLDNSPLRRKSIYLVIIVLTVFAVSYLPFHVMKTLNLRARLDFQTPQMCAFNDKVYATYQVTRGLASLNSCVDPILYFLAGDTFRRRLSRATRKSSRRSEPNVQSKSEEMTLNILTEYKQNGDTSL
Kind of test: Stimulation of phospholipase C (inositol phosphate formation) in turkey erythrocyte membranes. The class given is biochemical. To be noted: turkey erythrocyte membranes. Here is the method:
Phospholipase C activity: Stimulation of inositol phosphate formation by compounds of the present invention was measured in turkey erythrocyte membranes as described by Harden et al., supra and Boyer et al., supra. The K0.5 values were averaged from 3-8 independently determined dose-response curves for each compound. Briefly, one ml of washed turkey erythrocytes was incubated in inositol-free medium (DMEM; Gibco) with 0.5-1 mCi of 2-[^3 H]myoinositol (20 Ci/mmol; American Radiolabeled Chemicals Inc., St. Louis, Mo.)for 18-24 h in a humidified atmosphere of 95% air 5% CO2 at 37° C. Erythrocyte ghosts were prepared by rapid lysis in hypotonic buffer (5 mM sodium phosphate, pH 7.4, 5 mM MgCl2, 1 mM EGTA) as described by Boyer et al., supra. Phospholipase C activity was measured in 25 μl of [^3 H]inositol-labeled ghosts (≈175 μg of protein, 200-500,000 cpm/assay) in a medium containing 424 μM CaC12, 0.91 mM MgSO4, 2 mM EGTA, 115 mM KCl, 5 mM KH2 PO4, and 10 mM Hepes, pH 7.0. Assay (100 μl or 200 μl final volume) contained 1 μM GTPγS and the indicated concentrations of nucleotide analogs. Ghosts were incubated at 30° C. for 5 min, and total [^3 H]inositol phosphates were quantitated after purification by anion exchange chromatography according to Harden et al. (supra) and Boyer et al. (supra).
(§2) Phospholipase C activity and muscle relaxation/contraction effects were assessed using the methods recited in Example 3. In FIGS. 10-12, which present the result of assays of phospholipase C activity in turkey erythrocyte membranes, the x-axis is marked in units of the log of the molar concentration of the putative P2Y receptor agonist tested and the y-axis is marked in units of the percentage of maximum production of [^3 H]-inositol phosphate generated. In FIG. 13, the x-axis is marked in units of the negative log of the molar concentration of applied putative P2Y receptor agonists and the y-axis is marked in units of the percentage relaxation of the 50 nM carbachol-induced contraction of guinea pig taenia coli. In FIG. 14, the x-axis is also marked in units of the negative log of the molar concentration of applied putative P2Y receptor agonists and the y-axis is marked in units of the percentage relaxation of the 1 μM noradrenalin-induced contraction of rabbit aorta endothelium. In FIGS. 15-16, the x-axis is marked in units of the negative log of the molar concentration of applied putative p^2X receptor agonists and the y-axis is marked in units of the percentage contraction relative to a standard dose of KCl (i.e., 60 mM), as assessed in guinea pig isolated urinary bladder detrussor muscle (FIG. 15) and guinea pig isolated vas deferens (FIG. 16).

The target of test [4] is T3, P2Y receptor (taenia coli) (Cavia porcellus, UniProt P59902).
T3 construct: Relaxant responses mediated via P2Y receptors were examined in guinea pig taenia coli; from tissue; host or cells: guinea pig taenia coli (carbachol-contracted)
T3 sequence (P59902 whole entry): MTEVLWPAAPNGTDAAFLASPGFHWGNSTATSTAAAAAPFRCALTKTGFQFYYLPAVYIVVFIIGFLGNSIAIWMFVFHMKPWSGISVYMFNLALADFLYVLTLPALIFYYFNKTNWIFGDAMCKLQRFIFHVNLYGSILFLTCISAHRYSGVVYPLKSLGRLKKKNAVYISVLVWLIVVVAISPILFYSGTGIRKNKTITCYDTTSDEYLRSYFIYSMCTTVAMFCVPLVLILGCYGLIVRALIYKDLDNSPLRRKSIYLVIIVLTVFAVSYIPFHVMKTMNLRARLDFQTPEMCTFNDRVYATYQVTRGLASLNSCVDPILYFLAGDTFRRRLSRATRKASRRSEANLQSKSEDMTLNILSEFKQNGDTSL
Kind of test: Relaxation of carbachol-contracted guinea pig taenia coli. The note with it: for activity/potency in words, taenia coli: guinea pig taenia coli.
Description: as §1
Muscular relaxation assays were performed as recited in Example 3. […] All curves are the mean of two determinations except for 5'-ATP (n=38), 2-hexylthio-ATP (n=4), 2-(5-hexenyl)thio-ATP (n=3), and 2-(2-4-nitrophenylethyl)thio-AMP (n=5). […] The pD2 value for 2-methylthio-ATP is 8.0±0.15, as reported by Hoyle et al., in Receptor Data for Biological Experiments, (H. N. Doods and J. C. A. Van Meel, eds., 1992b) at pp. 54-61.
as §2

Test [5] deals with T4, P2X receptor (urinary bladder) (Cavia porcellus, UniProt A0A286XVA9).
T4 construct: guinea pig isolated urinary bladder detrussor muscle; from tissue; host or cells: guinea pig isolated urinary bladder detrusor muscle
The test can be described thus: Contraction of guinea pig isolated urinary bladder detrussor muscle. The note with it: guinea pig urinary bladder.

The subject of test [6] is P2Y receptor (aorta endothelium). Kind of test: Relaxation of noradrenalin-contracted rabbit aorta. The note with it: for activity/potency/selectivity in words, aorta: rabbit aorta endothelial P2Y receptor.
Test [7] deals with T5, P2X receptor (vas deferens) (Cavia porcellus, UniProt A0A286XVA9).
T5 sequence (A0A286XVA9 1-399): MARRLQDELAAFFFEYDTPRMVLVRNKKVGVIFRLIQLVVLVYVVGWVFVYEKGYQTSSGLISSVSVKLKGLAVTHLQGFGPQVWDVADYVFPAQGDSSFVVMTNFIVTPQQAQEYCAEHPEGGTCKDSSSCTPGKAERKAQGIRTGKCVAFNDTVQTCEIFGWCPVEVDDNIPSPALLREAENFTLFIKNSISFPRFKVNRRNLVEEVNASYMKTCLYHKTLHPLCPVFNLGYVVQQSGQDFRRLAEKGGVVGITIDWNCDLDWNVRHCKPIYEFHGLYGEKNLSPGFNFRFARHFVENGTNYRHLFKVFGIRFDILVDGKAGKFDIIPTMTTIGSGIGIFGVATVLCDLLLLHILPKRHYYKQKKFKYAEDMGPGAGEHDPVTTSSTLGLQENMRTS
The test can be described thus: Contraction of guinea pig isolated vas deferens.

Where [8] appears, read: mean ± S.E.M. for at least 2 determinations, read-out: phosphatidyl inositol metabolism (K0.5, nM) erythrocyte.

Turning to `N#CCCCCCCSc1nc(N)c2ncn([C@@H]3O[C@H](COP(=O)(O)O)[C@@H](O)[C@H]3O)c2n1` [2-(6-Cyanohexyl)thio-AMP, 2-(6-cyanohexylthio)-AMP], the “relaxation pD2, mes. artery” value in test [1] (log molar units) was 6.2. Moreover, the activation at 10 µM in test [2] (rabbit saphenous artery, 10 μM) amounted to 4.5%. Also, the EC50 was 37000 nM in test [3] (setting [8]), 37000 nM in test [3] (read-out: K0.5) and 39.8 µM in test [4].

As to `CC(=O)N[C@H]1[C@@H](O)[C@H](n2cnc3c(N)ncnc32)O[C@@H]1COP(=O)(O)OP(=O)(O)OP(=O)(O)O` [3'-Acetylamino-3'deoxy-ATP, 3'-Acetylamino-3'-deoxyadenosine 5'-triphosphate], the “activity/potency in words, bladder” value in test [5] was “more or less as potent as ATP; also recorded: active in the vas deferens and urinary bladder”. The “activity/potency in words, mesenteric artery” value is “more potent than ATP at rabbit mesenteric artery P2Y receptors” in test [1] (listed as 3'-Acetylamino-3'-deoxy-ATP) and “the only P2Y receptor which had any appreciable activity was that in the rabbit mesenteric artery” in test [1] (listed as 3'-acetylamino-3'-deoxy-ATP). In addition, the “activity/potency in words, saphenous artery” value in test [2] (rabbit saphenous artery) was “inactive in the saphenous artery”. For the same compound, the “activity/potency/selectivity in words, aorta” value (shortened to “activity/potency/selectivity”) in test [6] is “inactive at 10 μM at rabbit aorta P2Y receptors”. Moreover, the “activity/potency in words, turkey erythrocyte” value in test [3] was “nearly inactive”. Moreover, in test [3] (setting [8]), the EC50 was greater than 100000 nM. In addition, the “activity/potency in words, taenia coli” value in test [4] is “nearly inactive”. Further, the “activity/potency in words, vas deferens” value in test [7] was “more or less as potent as ATP; also recorded: active in the vas deferens and urinary bladder”.

Regarding `Nc1ncnc2c1ncn2[C@@H]1O[C@H](COP(=O)(O)OP(=O)(O)OP(=O)(O)O)[C@@H](NC(=O)CCc2ccc(O)cc2)[C@H]1O` [3'-[3-(p-Hydroxyphenyl)propionylamino]-3'-deoxyadenosine 5'-triphosphate], the “activity/potency in words, bladder” value in test [5] is on record as “more or less as potent as ATP”. Further, in test [1], the “activity/potency in words, mesenteric artery” value is “inactive in the mesenteric artery”. In addition, the “activity/potency in words, saphenous artery” value in test [2] (rabbit saphenous artery) was “inactive in the saphenous artery”. Moreover, the “activity/potency/selectivity” value is “considerably more potent than ATP in the aorta” in test [6] (listed as 3'-[3-(4-hydroxyphenyl)-propionylamino]-3'-deoxy-ATP) and “a high degree of selectivity for the aortic endothelial P2Y receptor” in test [6] (listed as 3-(p-Hydroxyphenyl-propionylamino-3'-deoxy-ATP)). The “activity/potency in words, turkey erythrocyte” value in test [3] is “nearly inactive”. Moreover, the EC50 in test [3] (setting [8]) is greater than 100000 nM. Further, the “activity/potency in words, taenia coli” value in test [4] was “nearly inactive”. In addition, the “activity/potency in words, vas deferens” value in test [7] is reported as “more or less as potent as ATP”.

For the compound `O=c1[nH]c(=O)n([C@@H]2O[C@H](COP(=O)(O)OP(=O)(O)OP(=O)(O)O)[C@@H](O)[C@H]2O)cc1F` [5-F-UTP, 5-Fluorouridine 5'-triphosphate], the “activity/potency in words, bladder” value in test [5] is given as “more potent than ATP; also recorded: as potent as or more potent than ATP in the bladder”. Besides, the “activity/potency in words, mesenteric artery” value in test [1] is “inactive”. Besides, the “activity/potency in words, saphenous artery” value in test [2] (rabbit saphenous artery) is “inactive”. Besides, the “activity/potency/selectivity” value in test [6] is listed as “more potent than ATP”. Besides, the “relaxation pD2, aorta” value in test [6] (rabbit aorta, log molar units) amounted to 6.0. Also, in test [3], the “activity/potency in words, turkey erythrocyte” value is “only a weak agonist”. In test [3] (setting [8]), the EC50 was greater than 100000 nM. Further, the “activity/potency in words, taenia coli” value in test [4] is listed as “only a weak agonist”. Besides, the “activity/potency in words, vas deferens” value in test [7] was “inactive; also recorded: without effect in the vas deferens”.

`C=CCCCCSc1nc(NC)c2ncn([C@@H]3O[C@H](COP(=O)(O)O)[C@@H](O)[C@H]3O)c2n1` [N^6 -Me-2-(5-hexenyl)-thio-AMP, N^6 -Me-2-(5-hexenylthio)adenosine monophosphate]: the activation at 10 µM in test [2] (rabbit saphenous artery, 10 μM) is 6.7%. For the same compound, the EC50 in test [3] (setting [8]) was greater than 100000 nM.

For `Nc1ncnc2c1ncn2[C@@H]1O[C@H](COP(=O)(O)OP(=O)(O)CP(=O)(O)O)[C@@H](O)[C@H]1O` [β,γ-Me-ATP, β,γ-methylene-ATP, reference compound], the “activity/potency in words, bladder” value in test [5] is “markedly enhanced activity”. The activation at 10 µM in test [2] is 89%. In addition, in test [3] (phosphatidyl inositol metabolism (K0.5, nM) erythrocyte, mean ± S.E.M. for at least 2 determinations), the EC50 was greater than 100000 nM. Also, the “activity/potency in words, turkey erythrocyte” value in test [3] is “nearly inactive at ≥100 μM”. In test [4], the “activity/potency in words, taenia coli” value was “reduced activity in the taenia coli”. In test [7], the “activity/potency in words, vas deferens” value is “markedly enhanced activity”.

The record behind these values is patent publication US5620676A, “Biologically active ATP analogs” (priority 1995, dated 1997).
